Source: the NIST ThermoML archive (doi:10.1021/je100598x)

Assay: cn = amount concentration of the nth substance listed, in mol/dm3
Settings: 101 kPa, Liquid, Direct current cell with electrodes

CCCCCCCCCCCC[N+](CCCC)(CCCC)CCCC.[Br-] [dodecyltributylammonium bromide] + O
electrical conductivity [S/m]
Settings	288.15 K	293.15 K	298.15 K	303.15 K	308.15 K	313.15 K	318.15 K
c1 = 0.000658	0.005218	0.00579	0.00649	0.007326	0.00785	0.008542	0.00923
c1 = 0.001299	0.009805	0.01101	0.01226	0.0138	0.01502	0.01631	0.0177
c1 = 0.001923	0.01419	0.01604	0.0179	0.0201	0.0218	0.0238	0.0258
c1 = 0.002532	0.01845	0.0208	0.0233	0.0262	0.0283	0.0309	0.0336
c1 = 0.003125	0.0226	0.0254	0.0287	0.0319	0.0346	0.0378	0.0412
c1 = 0.003704	0.0265	0.03	0.0335	0.0374	0.0407	0.0445	0.0484
c1 = 0.004268	0.0303	0.0341	0.0383	0.0427	0.0465	0.0509	0.0551
c1 = 0.004819	0.034	0.0384	0.0429	0.0476	0.0517	0.0566	0.0619
c1 = 0.005357	0.0377	0.0423	0.0472	0.052	0.0567	0.0619	0.0672
c1 = 0.005882	0.041	0.0459	0.0508	0.0554	0.0599	0.0658	0.0712
c1 = 0.006395	0.0441	0.0487	0.0532	0.0578	0.0629	0.069	0.0752
c1 = 0.006896	0.0466	0.0509	0.0556	0.0601	0.0658	0.072	0.0785
c1 = 0.007386	0.0485	0.0524	0.0575	0.0626	0.0678	0.0747	0.0817
c1 = 0.007865	0.05	0.0542	0.059	0.0647	0.0706	0.0773	0.0845
c1 = 0.008333	0.0513	0.0554	0.061	0.0666	0.0728	0.0798	0.0874
c1 = 0.008791	0.0523	0.0568	0.0622	0.0685	0.0749	0.0822	0.09
c1 = 0.009239	0.0537	0.0582	0.0641	0.0703	0.077	0.0845	0.0926
c1 = 0.009677	0.0548	0.0598	0.0652	0.0721	0.0789	0.0867	0.0952
c1 = 0.01011	0.0556	0.061	0.0671	0.0737	0.0804	0.0889	0.0976
c1 = 0.01053	0.0572	0.0623	0.0686	0.0757	0.0829	0.0913	0.1003
c1 = 0.01094	0.0583	0.0636	0.0701	0.0774	0.0849	0.0935	0.1028
c1 = 0.01134	0.0594	0.0649	0.0716	0.0791	0.0868	0.0957	0.105
c1 = 0.01174	0.0605	0.0661	0.073	0.0807	0.0887	0.0978	0.108
c1 = 0.01212	0.0615	0.0673	0.0744	0.0824	0.0905	0.0998	0.11
c1 = 0.0125	0.0626	0.0685	0.0758	0.084	0.0923	0.1019	0.1122

CCCCCCCCCCCC[N+](CC)(CC)CC.[Br-] [dodecyltriethylammonium bromide] + O
electrical conductivity [S/m]
Settings	288.15 K	293.15 K	298.15 K	303.15 K	308.15 K	313.15 K	318.15 K
c1 = 0.001316	0.0105	0.0119	0.0132	0.0146	0.01605	0.0176	0.019
c1 = 0.002597	0.02	0.0226	0.0252	0.028	0.0306	0.0335	0.0363
c1 = 0.003846	0.0289	0.0327	0.0365	0.0406	0.0443	0.0486	0.0526
c1 = 0.005063	0.0374	0.0423	0.0473	0.0526	0.0573	0.0631	0.0682
c1 = 0.00625	0.0456	0.0516	0.0576	0.0641	0.0698	0.0768	0.0831
c1 = 0.007407	0.053	0.0604	0.0676	0.0752	0.0819	0.09	0.0976
c1 = 0.008536	0.0609	0.0689	0.0771	0.0859	0.0934	0.1028	0.1114
c1 = 0.009638	0.0681	0.077	0.0862	0.0962	0.1047	0.115	0.1247
c1 = 0.01071	0.0751	0.085	0.095	0.106	0.116	0.127	0.137
c1 = 0.01177	0.0818	0.0926	0.1035	0.115	0.126	0.139	0.15
c1 = 0.01279	0.0884	0.1	0.1116	0.1245	0.136	0.149	0.1607
c1 = 0.01379	0.0946	0.107	0.119	0.1325	0.1445	0.159	0.173
c1 = 0.01477	0.0997	0.1119	0.1243	0.138	0.1513	0.167	0.1822
c1 = 0.01573	0.1033	0.115	0.128	0.1426	0.156	0.1726	0.189
c1 = 0.01667	0.106	0.118	0.1315	0.146	0.1607	0.178	0.196
c1 = 0.01758	0.108	0.121	0.1345	0.15	0.165	0.1821	0.2
c1 = 0.01848	0.1105	0.1235	0.137	0.1528	0.169	0.186	0.206
c1 = 0.01936	0.1125	0.126	0.1401	0.156	0.1721	0.1911	0.211
c1 = 0.02021	0.1144	0.128	0.1427	0.159	0.175	0.195	0.215
c1 = 0.02105	0.116	0.1303	0.145	0.1616	0.179	0.199	0.22
c1 = 0.02188	0.118	0.1324	0.148	0.1645	0.1821	0.202	0.224
c1 = 0.02268	0.12	0.1344	0.15	0.167	0.185	0.206	0.228
c1 = 0.02347	0.1215	0.136	0.1524	0.17	0.189	0.209	0.232
c1 = 0.02424	0.1231	0.138	0.1546	0.1723	0.1916	0.213	0.236
c1 = 0.025	0.125	0.1403	0.157	0.175	0.1946	0.216	0.24

CCCCCCCCCCCC[N+](C)(C)C.[Br-] [dodecyltrimethylammonium bromide] + O
electrical conductivity [S/m]
Settings	288.15 K	293.15 K	298.15 K	303.15 K	308.15 K	313.15 K	318.15 K
c1 = 0.001961	0.0157	0.0175	0.0196	0.0218	0.0238	0.0261	0.0279
c1 = 0.003846	0.0294	0.0332	0.0372	0.0411	0.045	0.0494	0.0531
c1 = 0.00566	0.0421	0.0478	0.0533	0.0592	0.0647	0.0711	0.076
c1 = 0.007407	0.0542	0.0614	0.0689	0.0762	0.0833	0.0914	0.0969
c1 = 0.009091	0.0654	0.0743	0.0833	0.0921	0.1007	0.1109	0.119
c1 = 0.01071	0.0762	0.0865	0.0964	0.107	0.117	0.129	0.139
c1 = 0.01228	0.0863	0.098	0.11	0.1218	0.1328	0.146	0.158
c1 = 0.01379	0.0954	0.109	0.1222	0.136	0.148	0.1623	0.175
c1 = 0.01525	0.105	0.119	0.1337	0.148	0.162	0.178	0.1919
c1 = 0.01667	0.1103	0.125	0.1405	0.157	0.1727	0.1907	0.206
c1 = 0.01758	0.1125	0.128	0.1433	0.1605	0.177	0.197	0.215
c1 = 0.01848	0.1143	0.13	0.146	0.1634	0.1807	0.201	0.222
c1 = 0.01936	0.116	0.1315	0.148	0.166	0.1837	0.205	0.226
c1 = 0.02021	0.117	0.1332	0.1501	0.168	0.187	0.209	0.23
c1 = 0.02105	0.119	0.135	0.1521	0.17	0.19	0.212	0.234
c1 = 0.02188	0.1203	0.137	0.154	0.172	0.1922	0.215	0.238
c1 = 0.02268	0.1216	0.138	0.156	0.1741	0.195	0.218	0.242
c1 = 0.02347	0.1229	0.14	0.158	0.176	0.198	0.22	0.246
c1 = 0.02424	0.1242	0.1411	0.159	0.178	0.2	0.223	0.249
c1 = 0.025	0.126	0.1425	0.161	0.1805	0.203	0.226	0.252
c1 = 0.02611	0.127	0.145	0.1636	0.1831	0.206	0.23	0.258
c1 = 0.02718	0.129	0.147	0.166	0.186	0.21	0.234	0.263
c1 = 0.02823	0.131	0.149	0.169	0.189	0.213	0.238	0.268
c1 = 0.02925	0.1327	0.151	0.171	0.1912	0.217	0.242	0.272
c1 = 0.03023	0.1344	0.1529	0.1733	0.1937	0.22	0.246	0.277
